Experimental data published in US11649231B2, “Compound as mTOR inhibitor and use thereof” (MEDICINAL BIOCONVERGENCE RESEARCH CENTER, priority 2018, dated 2023).

system: mTORC1; assay: mTORC1 activity inhibitory effect at 20 μM, phospho-p70 S6 Kinase Western blot in SW620 cells; conditions: leucine-free 1 h 30 min, then leucine 15 min, vs DMSO control
Experimental: In order to evaluate the inhibitory effect of the compounds according to the present invention on the activity of mTORC1, an experiment was performed in the following manner.

SMILES | mTORC1 inhibitory effect (%)
CN1C(=O)/C(=C/c2cnn(-c3ccc(Cl)cc3)c2)SC1=S [Example 1-18, (5Z)-5-[[1-(4-chlorophenyl)pyrazol-4-yl]methylene]-3-methyl-2-thioxo-thiazolidin-4-one] | 50.17 ± 12.77
CN1C(=O)/C(=C/c2cnn(-c3ccccc3Cl)c2)SC1=S [Example 1-10, (5Z)-5-[[1-(2-chlorophenyl)pyrazol-4-yl]methylene]-3-methyl-2-thioxo-thiazolidin-4-one] | 50.52 ± 3.69
Cc1ccc(-n2cc(/C=C3\SC(=S)NC3=O)cn2)cc1C [Example 1-28, (5Z)-5-[[1-(3,4-dimethylphenyl)pyrazol-4-yl]methylene]-2-thioxo-thiazolidin-4-one] | 47.13 ± 3.15
O=C1/C(=C/c2cnn(-c3cccnc3)c2)SC(=S)N1CCO [Example 1-36, (5Z)-3-(2-hydroxyethyl)-5-[[1-(3-pyridyl)pyrazol-4-yl]methylene]-2-thioxo-thiazolidin-4-one] | 80.88 ± 1.10
CCCCc1ccc(-n2cc(/C=C3\SC(=S)NC3=O)cn2)cc1 [Example 1-26, (5Z)-5-[[1-(4-butylphenyl)pyrazol-4-yl]methylene]-2-thioxo-thiazolidin-4-one] | 59.73 ± 3.55
CCCCc1ccc(-n2cc(/C=C3\SC(=S)N(CC)C3=O)cn2)cc1 [Example 1-27, (5Z)-5-[[1-(4-butylphenyl)pyrazol-4-yl]methylene]-3-ethyl-2-thioxo-thiazolidin-4-one] | 51.70 ± 7.12
Cn1cc(/C=C2\SC(=S)N(Cc3ccco3)C2=O)cn1 [Example 1-2, (5Z)-3-(2-furylmethyl)-5-[(1-methylpyrazol-4-yl)methylene]-2-thioxo-thiazolidin-4-one] | 74.4 ± 0.2
Cc1ccc(-n2cc(/C=C3\SC(=O)NC3=O)cn2)cc1C [Example 1-49, (5Z)-5-[[1-(3,4-dimethylphenyl)pyrazol-4-yl]methylene]thiazolidine-2,4-dione] | 68.36 ± 2.99
O=C1NC(=O)/C(=C/c2cnn(-c3cccc(F)c3)c2)S1 [Example 1-41, (5Z)-5-[[1-(3-fluorophenyl)pyrazol-4-yl]methylene]thiazolidine-2,4-dione] | 49.37 ± 7.34
COc1ccccc1-n1cc(/C=C2\SC(=O)NC2=O)cn1 [Example 1-50, (5Z)-5-[[1-(2-methoxyphenyl)pyrazol-4-yl]methylene]thiazolidine-2,4-dione] | 38.93 ± 16.04
CN1C(=O)/C(=C/c2cnn(-c3ccccc3)c2)SC1=S [Example 1-3, (5Z)-3-methyl-5-[(1-phenylpyrazol-4-yl)methylene]-2-thioxo-thiazolidin-4-one] | 53.97 ± 1.49
CCCCc1ccc(-n2cc(/C=C3\SC(=O)NC3=O)cn2)cc1 [Example 1-48, (5Z)-5-[[1-(4-butylphenyl)pyrazol-4-yl]methylene]thiazolidine-2,4-dione] | 69.53 ± 2.04
Cc1ccc(-n2cc(/C=C3\SC(=S)N(C)C3=O)cn2)cc1 [Example 1-21, (5Z)-3-methyl-5-[[1-(p-tolyl)pyrazol-4-yl]methylene]-2-thioxo-thiazolidin-4-one] | 71.18 ± 5.04
CN1C(=O)/C(=C/c2cnn(-c3cccc(Cl)c3)c2)SC1=S [Example 1-14, (5Z)-5-[[1-(3-chlorophenyl)pyrazol-4-yl]methylene]-3-methyl-2-thioxo-thiazolidin-4-one] | 46.72 ± 14.22
O=C1NC(=O)/C(=C/c2cnn(-c3ccc4ccccc4c3)c2)S1 [Example 1-51, (5Z)-5-[[1-(2-naphthyl)pyrazol-4-yl]methylene]thiazolidine-2,4-dione] | 53.08 ± 1.81
Cc1nn(-c2ccccc2)cc1/C=C1\SC(=O)NC1=O [Example 1-53, (5Z)-5-[(3-methyl-1-phenyl-pyrazol-4-yl)methylene]thiazolidine-2,4-dione] | 71.70 ± 1.70
Cc1ccc(-n2cc(/C=C3\SC(=S)NC3=O)cn2)cc1 [Example 1-20, (5Z)-5-[[1-(p-tolyl)pyrazol-4-yl]methylene]-2-thioxo-thiazolidin-4-one] | 83.30 ± 1.76
Cc1nn(-c2ccccc2)c(C)c1/C=C1\SC(=S)NC1=O [Example 1-38, (5Z)-5-[(3,5-dimethyl-1-phenyl-pyrazol-4-yl)methylene]-2-thioxo-thiazolidin-4-one] | 75.78 ± 2.60
C=CCN1C(=O)/C(=C/c2cnn(-c3ccc(C)cc3)c2)SC1=S [Example 1-23, (5Z)-3-allyl-5-[[1-(p-tolyl)pyrazol-4-yl]methylene]-2-thioxo-thiazolidin-4-one] | 15.74 ± 10.22
O=C1NC(=O)/C(=C/c2cnn(-c3ccc(Cl)cc3)c2)S1 [Example 1-45, (5Z)-5-[[1-(4-chlorophenyl)pyrazol-4-yl]methylene]thiazolidine-2,4-dione] | 64.18 ± 3.13
O=C1NC(=S)S/C1=C\c1cnn(-c2ccc3ccccc3c2)c1 [Example 1-31, (5Z)-5-[[1-(2-naphthyl)pyrazol-4-yl]methylene]-2-thioxo-thiazolidin-4-one] | 40.20 ± 1.02

SMILES | mTORC1 inhibitory effect (%)
O=C1NC(=S)S/C1=C\c1ccn(-c2ccc(Cl)cc2)n1 [Example 1-55, (5Z)-5-[[1-(4-chlorophenyl)pyrazol-3-yl]methylene]-2-thioxo-thiazolidin-4-one] | 74.6 ± 6.5
Cc1nn(-c2ccccc2)c(C)c1/C=C1\SC(=O)NC1=O [Example 1-54, (5Z)-5-[(3,5-dimethyl-1-phenyl-pyrazol-4-yl]methylene]thiazolidine-2,4-dione] | 71.17 ± 4.46
O=C1NC(=O)/C(=C/c2ccn(-c3ccccc3)n2)S1 [Example 1-58, (5Z)-5-[[1-phenylpyrazol-3-yl]methylene]thiazolidine-2,4-dione] | 59.51 ± 4.35
O=C1NC(=O)/C(=C/c2ccn(-c3cccnc3)n2)S1 [Example 1-60, (5Z)-5-[[1-(3-pyridyl)pyrazol-3-yl]methylene]thiazolidine-2,4-dione] | 81.52 ± 3.79
CCN1C(=O)/C(=C/c2cnn(-c3ccccc3Cl)c2)SC1=S [Example 1-11, (5Z)-5-[[1-(2-chlorophenyl)pyrazol-4-yl]methylene]-3-ethyl-2-thioxo-thiazolidin-4-one] | 67.22 ± 1.41
CCN1C(=O)/C(=C/c2cnn(-c3cccc(Cl)c3)c2)SC1=S [Example 1-15, (5Z)-5-[[1-(3-chlorophenyl)pyrazol-4-yl]methylene]-3-ethyl-2-thioxo-thiazolidin-4-one] | 72.46 ± 1.79
O=C1NC(=O)/C(=C/c2cnn(-c3ccccc3F)c2)S1 [Example 1-40, (5Z)-5-[[1-(2-fluorophenyl)pyrazol-4-yl]methylene]thiazolidine-2,4-dione] | 41.03 ± 0.21
CCN1C(=O)/C(=C/c2cnn(-c3ccc(Cl)cc3)c2)SC1=S [Example 1-19, (5Z)-5-[[1-(4-chlorophenyl)pyrazol-4-yl]methylene]-3-ethyl-2-thioxo-thiazolidin-4-one] | 54.17 ± 8.55
CCN1C(=O)/C(=C/c2cnn(-c3ccc4ccccc4c3)c2)SC1=S [Example 1-32, (5Z)-3-ethyl-5-[[1-(2-naphthyl)pyrazol-4-yl]methylene]-2-thioxo-thiazolidin-4-one] | 75.04 ± 5.32
CCN1C(=O)/C(=C/c2cnn(-c3ccccc3)c2)SC1=S [Example 1-4, (5Z)-3-ethyl-5-[(1-phenylpyrazol-4-yl)methylene]-2-thioxo-thiazolidin-4-one] | 68.36 ± 1.69
C=CCN1C(=O)/C(=C/c2cnn(-c3ccccc3Cl)c2)SC1=S [Example 1-12, (5Z)-3-allyl-5-[[1-(2-chlorophenyl)pyrazol-4-yl]methylene]-2-thioxo-thiazolidin-4-one] | 70.93 ± 2.39
O=C1/C(=C/c2cnn(-c3ccccn3)c2)SC(=S)N1CCO [Example 1-34, (5Z)-3-(2-hydroxyethyl)-5-[[1-(2-pyridyl)pyrazol-4-yl]methylene]-2-thioxo-thiazolidin-4-one] | 82.94 ± 1.10
C=CCN1C(=O)/C(=C/c2cnn(-c3cccc(Cl)c3)c2)SC1=S [Example 1-16, (5Z)-3-allyl-5-[[1-(3-chlorophenyl)pyrazol-4-yl]methylene]-2-thioxo-thiazolidin-4-one] | 3.74 ± 10.43
O=C1NC(=O)/C(=C/c2cnn(-c3cccc(Cl)c3)c2)S1 [Example 1-44, (5Z)-5-[[1-(3-chlorophenyl)pyrazol-4-yl]methylene]thiazolidine-2,4-dione] | 50.76 ± 5.28
CCN1C(=O)/C(=C/c2cnn(-c3ccc(C)c(C)c3)c2)SC1=S [Example 1-29, (5Z)-5-[[1-(3,4-dimethylphenyl)pyrazol-4-yl]methylene]-3-ethyl-2-thioxo-thiazolidin-4-one] | 4.02 ± 6.64
O=C1NC(=O)/C(=C/c2cnn(-c3ccc(F)cc3)c2)S1 [Example 1-42, (5Z)-5-[[1-(4-fluorophenyl)pyrazol-4-yl]methylene]thiazolidine-2,4-dione] | 73.81 ± 2.77
O=C1NC(=O)/C(=C/c2cnn(-c3ccccc3Cl)c2)S1 [Example 1-43, (5Z)-5-[[1-(2-chlorophenyl)pyrazol-4-yl]methylene]thiazolidine-2,4-dione] | 52.34 ± 3.97
CC(C)c1ccc(-n2cc(/C=C3\SC(=O)NC3=O)cn2)cc1 [Example 1-47, (5Z)-5-[[1-(4-isopropylphenyl)pyrazol-4-yl]methylene]thiazolidine-2,4-dione] | 74.36 ± 1.23
CCN1C(=O)/C(=C/c2cnn(-c3ccc(C(C)C)cc3)c2)SC1=S [Example 1-25, (5Z)-3-ethyl-5-[[1-(4-isopropylphenyl)pyrazol-4-yl]methylene]-2-thioxo-thiazolidin-4-one] | 36.86 ± 3.47
CCN1C(=O)/C(=C/c2cnn(-c3ccc(C)cc3)c2)SC1=S [Example 1-22, (5Z)-3-ethyl-5-[[1-(p-tolyl)pyrazol-4-yl]methylene]-2-thioxo-thiazolidin-4-one] | 77.21 ± 0.84
